Where no end group is shown, it is not given here. [ ]: non-standard residue; d: D form.
What was measured:
Type in all cases: cell-based
H929 cells [1] = assay: Electron microscopy of double membrane vesicles; conditions: 100 μg/ml, 4 hours
Method: H929 cells were treated with either 100 µg/ml HYD1 (FIG. 24A) or HYD1S (FIG. 24B) for four hours and processed for electron microscopy as described in materials and methods.
Electron Microscopy. H929 cells were treated for four hours with either 100 μg/ml HYD1 or HYD1S. After peptide treatment, the samples were fixed overnight in 2.5% glutaraldehyde in 0.1M phosphate buffer, pH 7.2 overnight at four degrees. Following fixation, the cells were rinsed 2 times for 10 minutes each in 0.1M phosphate buffer, pH 7.2, at 4° C. The cells were loosely pelleted in microcentrifuge tubes at 500×G for 3 minutes. The buffer was removed from the cells and replaced with 1% osmium tetroxide in the above buffer at 4° C. The cells were resuspended and post-fixed for 1 hour, then loosely pelleted and rinsed in the above buffer. This step was repeated for a total of 3 rinses of 5 minutes each, with the cells being resuspended after each buffer change. Cells were dehydrated through a graded series of acetone, 30%, 50%, 70%, and 95% acetone in water, 5 minutes per change with loose pelleting at 750×G for 5 minutes, then resuspension for each step. The cells were then dehydrated through three changes of 100% acetone, 10 minutes per change, with a 5 minute pelleting step at 1000×G, followed by resuspension in each step. […]

prostate tumor cell = assay: Random haptotaxis (cell migration) on laminin 322 (laminin 5); conditions: soluble peptide, cells grown on ligand before treatment
From the text: Defining the minimal region of HYD1 necessary to potentiate drug-induced apoptosis in suspension and adherent cultures is of interest. Below is a study to determine the minimal HYD1 sequence required to block prostate tumor cell migration. Similar studies as those outlined below and using the same peptide sequences will be used to determine the minimal amino acid sequence required for potentiation of drug induced apoptosis.
This response to the peptide is independent of disrupting adhesion to laminin 322 (laminin 5) since the cells were grown on a ligand before treatment with the peptide. […] All other alanine-substitution mutants resulted cell migration, i.e., a loss of peptide activity.
Using the negative control scrambled peptide, HYDS (SEQ ID NO:44), to indicate 100% cell migration, several truncated peptides including, ikmviswkg (SEQ ID NO:22), kmviswkg (SEQ ID NO:39), and kikmviswk (SEQ ID NO:37) were effective at blocking cell migration by approximately 50%.

caspase 8 = assay: Caspase 8 activity in H929 cells (fluorescent substrate); conditions: 6 or 24 hrs
Method: Cells were treated for 6 hours (FIG. 22A) or 24 hours (FIG. 22B) and caspase 8 activity was measured using a fluorescent substrate. Shown is a representative experiment performed in triplicates. The experiment was repeated twice and similar results were obtained.
Detection of Apoptosis. A flow cytometric assay measuring Annexin V/PI staining was used to measure apoptotic cells following 24 hours of peptide exposure as previously described (Damiano J S et al. Blood, 1999; 93:1658-1667). The assay was performed in triplicate and 3 independent experiments were performed. Caspase 3 and 8 activity was measured at 6 and 24 hrs post peptide treatment per manufactures' instructions (BD Biosciences, San Jose, Calif.). The caspase assays were performed in triplicate and repeated twice.

8226 cells = assay: Cell adhesion to HS-5 bone marrow stroma cells (CMFDA fluorescence); conditions: varying concentrations, 30 minutes pre-incubation, two hours adhesion
Method: (§1) FIGS. 31A and 31B are graphs showing that HYD1 blocks adhesion of 8226 but not H929 cells to the bone marrow stroma cell line HS-5. Varying concentrations of either HYD1, HYD1S or a 1:100 dilution of a β1 integrin functional blocking antibody was added to either (FIG. 31A) CMFDA labeled 8226 cells or (FIG. 31B) CMFDA labeled H929 cells for 30 minutes prior to adding fluorescently labeled cells to either HS-5 or BSA coated wells for two hours. Unadhered cells were gently removed and adherent cells were quantified by total fluorescence. The independent experiments were performed and similar results were obtained.
(§2) Quantification of cell adhesion to HS-5 bone marrow stroma cells. Adhesion of 8226 or H929 cells to the HS-5 bone marrow stromal cells was performed as previously described (Nefedova Y et al. Leukemia, 2003; 17:1175-1182). Briefly, HS-5 cells were plated at a density of 500,000 cell/ml in a 96 well plate overnight. […] Cells were then counted and placed at a density of one million cells per ml and varying concentrations of peptide were added for 30 minutes prior to addition of 100 μl of cells to either HS-5 or BSA coated plates. Cells were allowed to adhere for two hours and unbound cells were washed with three gentle washes and total fluorescence was detected by a Victor plate reader, at 485 nm excitation and 535 nm emission. […]

H929 cells [2] = assay: as above; conditions: varying concentrations, 30 minutes pre-incubation, two hours adhesion
Method: as §1, §2

ERK = assay: Activation of ERK signaling
Method: HYD1, when introduced as a soluble ligand, completely blocks random hapotaxis on laminin 322 and enhanced cellular signals are coupled with the loss of cell motility. […] Using this endpoint as an indicator of HYD1 bioactivity, the truncated and alanine-substituted variants of HYD1 were tested for their ability to activate ERK. Activation of ERK at 10 minutes post-treatment was conserved with alanine-substitution only at the N-terminal lysine and C-terminal glycine (FIG. 16A-1). […] Taken together (FIG. 16C-2), the results (FIGS. 16A-1, 16A-2, 16B, 16C-1) indicate that activation of ERK signaling required ikmviswxx (SEQ ID NO:48).

“kikmviswkg ([dK][dI][dK][dM][dV][dI][dS][dW][dK]G) [HYD1]” was tested. Which “formation of double membranes / vesicles (EM)” value (H929 cells [1]) did it give?
Its value is “increased formation of double membranes”.

And the “blocking of random haptotaxis on laminin 322 (laminin 5)” value (prostate tumor cell)?
The value was “completely blocks random haptotaxis”.

What about the “caspase 8 activity” value (caspase 8) of the same substance?
Its value is “no caspase 8 activity was detected”.

What about the “blocking of 8226 cells binding to HS-5 cells” value (8226 cells) of the same substance?
The value was “partially blocked”.

And the “blocking of H929 cells binding to HS-5 cells” value (H929 cells [2])?
Its value is “no effect”.

And the “time of maximal activation of ERK post-treatment” value (ERK)?
Its value is 10 min.

What about the “activation of ERK” value (ERK; 10 minutes post-treatment) of the same substance?
Its value is “induces activation of ERK”.

Reference: patent publication US7632814B2, “HYD1 peptides as anti-cancer agents” (University of South Florida, priority 2006, dated 2009)
